One assay concerns the target T1, Protein skinhead-1 (Caenorhabditis elegans, UniProt P34707).
T1 sequence (P34707 whole entry): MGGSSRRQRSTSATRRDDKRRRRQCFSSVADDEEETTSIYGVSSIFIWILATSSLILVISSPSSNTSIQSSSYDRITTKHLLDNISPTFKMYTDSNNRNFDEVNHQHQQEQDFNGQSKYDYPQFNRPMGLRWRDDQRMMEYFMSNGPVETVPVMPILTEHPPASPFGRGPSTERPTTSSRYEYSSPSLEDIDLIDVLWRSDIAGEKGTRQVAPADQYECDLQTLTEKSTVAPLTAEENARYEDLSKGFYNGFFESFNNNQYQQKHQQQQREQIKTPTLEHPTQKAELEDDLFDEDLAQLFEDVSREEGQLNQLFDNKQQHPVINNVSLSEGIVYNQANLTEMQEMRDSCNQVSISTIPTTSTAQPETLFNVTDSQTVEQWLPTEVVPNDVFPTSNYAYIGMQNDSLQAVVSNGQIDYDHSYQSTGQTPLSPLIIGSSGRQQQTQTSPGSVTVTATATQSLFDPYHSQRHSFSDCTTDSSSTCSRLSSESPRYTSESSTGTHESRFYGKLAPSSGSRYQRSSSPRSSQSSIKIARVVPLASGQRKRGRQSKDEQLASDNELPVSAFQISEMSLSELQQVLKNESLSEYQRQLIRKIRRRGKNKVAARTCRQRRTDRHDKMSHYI
The format is functional.

A short description of assay [1]: inhibitors of intracellular T. cruzi replication, confirmation, NIH3T3 host cells, beta-gal luminescence (AID 2044).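 Note: intracellular parasites grown in NIH/3T3 mouse fibroblasts as host cells; luminescent beta-galactosidase reporter signal from transgenic T. cruzi replicating inside host cells; inhibitors lower the luminescence signal.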 It counts as functional, cell-based.
The target in assay [2] is T2, High affinity choline transporter 1 (Homo sapiens, UniProt Q9GZV3).
T2 sequence (Q9GZV3 whole entry): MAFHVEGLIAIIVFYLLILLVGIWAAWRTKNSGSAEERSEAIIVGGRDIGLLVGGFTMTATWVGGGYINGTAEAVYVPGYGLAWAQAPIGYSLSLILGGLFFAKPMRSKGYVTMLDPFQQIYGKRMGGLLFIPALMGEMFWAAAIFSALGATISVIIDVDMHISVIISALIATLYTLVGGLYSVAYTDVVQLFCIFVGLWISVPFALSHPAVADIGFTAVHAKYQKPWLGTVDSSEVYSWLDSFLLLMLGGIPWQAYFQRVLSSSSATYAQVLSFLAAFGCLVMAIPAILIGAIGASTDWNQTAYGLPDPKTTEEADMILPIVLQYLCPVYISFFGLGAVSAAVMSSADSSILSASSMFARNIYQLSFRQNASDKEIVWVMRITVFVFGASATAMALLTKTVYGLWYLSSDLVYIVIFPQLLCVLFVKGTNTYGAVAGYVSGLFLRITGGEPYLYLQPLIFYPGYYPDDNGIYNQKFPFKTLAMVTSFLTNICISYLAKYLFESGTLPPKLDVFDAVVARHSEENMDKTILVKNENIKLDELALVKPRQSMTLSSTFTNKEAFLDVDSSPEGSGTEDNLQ
In words: CHT inhibitors, dose response, cell-based, 5-point CRC, membrane potential dye (AID 504840). It counts as functional.

In assay [3] the target is T3, DNA repair and recombination protein RAD54-like (Homo sapiens, UniProt Q92698).
T3 sequence (Q92698 whole entry): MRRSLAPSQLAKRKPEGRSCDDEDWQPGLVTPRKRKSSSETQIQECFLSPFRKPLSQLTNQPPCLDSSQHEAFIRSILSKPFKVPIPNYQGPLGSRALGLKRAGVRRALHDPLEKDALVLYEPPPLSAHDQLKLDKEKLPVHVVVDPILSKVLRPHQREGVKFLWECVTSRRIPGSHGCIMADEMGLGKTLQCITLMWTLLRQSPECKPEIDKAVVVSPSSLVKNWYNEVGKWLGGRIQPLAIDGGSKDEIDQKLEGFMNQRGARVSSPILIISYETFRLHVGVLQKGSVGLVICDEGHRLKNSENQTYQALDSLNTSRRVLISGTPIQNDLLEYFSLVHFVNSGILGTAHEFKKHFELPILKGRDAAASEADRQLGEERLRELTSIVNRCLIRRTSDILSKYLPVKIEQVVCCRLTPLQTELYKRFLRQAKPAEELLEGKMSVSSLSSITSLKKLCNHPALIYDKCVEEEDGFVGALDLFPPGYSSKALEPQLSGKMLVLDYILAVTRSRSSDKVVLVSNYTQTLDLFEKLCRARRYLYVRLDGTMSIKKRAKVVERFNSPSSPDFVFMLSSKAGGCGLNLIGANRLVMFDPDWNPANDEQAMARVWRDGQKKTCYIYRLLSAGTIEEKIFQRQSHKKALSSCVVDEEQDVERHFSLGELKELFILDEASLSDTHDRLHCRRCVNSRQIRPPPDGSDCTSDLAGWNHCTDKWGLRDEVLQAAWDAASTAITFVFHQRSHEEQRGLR
In words: inhibitors of human RAD54 branch migration, confirmation, biochemical, fluorescence, cherry-picked samples, dose series (AID 651657). It counts as functional.

Assay [4] in a line: cytotoxicity toward NIH3T3 fibroblasts, dose response, counter-screen, cell-based, ATP luminescence, mouse fibroblasts (AID 2010).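 Note: cells exposed to compound for about 90 hours before reading.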 It counts as functional. In general terms: A counterscreen serves to expose hits that act by an unwanted route or on another target.
Assay [5] deals with T4, DNA repair protein RAD52 homolog (Homo sapiens, UniProt P43351).
T4 sequence (P43351 whole entry): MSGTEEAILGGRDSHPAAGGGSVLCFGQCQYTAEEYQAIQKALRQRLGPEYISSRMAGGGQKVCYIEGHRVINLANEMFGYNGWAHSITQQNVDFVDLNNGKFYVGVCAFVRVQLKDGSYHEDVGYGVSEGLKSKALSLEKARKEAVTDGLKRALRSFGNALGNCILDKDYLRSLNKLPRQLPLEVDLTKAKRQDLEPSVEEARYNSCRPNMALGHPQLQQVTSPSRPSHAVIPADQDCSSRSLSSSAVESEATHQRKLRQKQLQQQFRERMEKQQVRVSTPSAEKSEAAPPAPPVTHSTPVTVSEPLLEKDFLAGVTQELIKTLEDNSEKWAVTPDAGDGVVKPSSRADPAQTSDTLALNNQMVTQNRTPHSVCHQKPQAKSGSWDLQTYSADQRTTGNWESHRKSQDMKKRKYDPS
It counts as functional, biochemical.

Assay [6] is described as follows: microbe, parasite or virus in culture. The format is functional. The note with it: Mycobacterium tuberculosis.
For the next assay, the target named is Paired box protein Pax-8 (Homo sapiens, UniProt Q06710). In words: inhibitors of PAX8-driven TPO luciferase reporter, dose response, RMG-I cells, cherry-pick (AID 687027).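 Note: luciferase reporter driven by Pax8 target thyroperoxidase promoter measured by SteadyGlo luminescence.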 The format is functional, cell-based. On the technique in general: In a reporter assay the amount or activity of a reporter protein is the signal.
Sequence of Paired box protein Pax-8 (Q06710 whole entry, the tested form may be a part): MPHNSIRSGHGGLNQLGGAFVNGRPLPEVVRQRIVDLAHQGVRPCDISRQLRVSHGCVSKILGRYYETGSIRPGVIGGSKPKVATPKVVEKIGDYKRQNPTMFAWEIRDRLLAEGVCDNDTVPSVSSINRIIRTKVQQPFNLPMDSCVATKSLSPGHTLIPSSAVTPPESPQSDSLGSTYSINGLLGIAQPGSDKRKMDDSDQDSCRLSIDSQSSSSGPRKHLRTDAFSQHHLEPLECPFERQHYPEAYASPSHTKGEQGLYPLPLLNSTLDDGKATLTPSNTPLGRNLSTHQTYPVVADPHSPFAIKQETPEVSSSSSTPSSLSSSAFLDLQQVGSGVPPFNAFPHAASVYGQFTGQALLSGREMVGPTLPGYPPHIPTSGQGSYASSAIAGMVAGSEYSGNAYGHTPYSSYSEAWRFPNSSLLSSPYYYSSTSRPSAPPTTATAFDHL
Assay [7] in a line: Fluorescence-based cell-based high throughput dose response assay for inhibitors of the interaction of nucleotide-binding oligomerization domain containing 2 (NOD2) and the receptor-interacting serine-threonine kinase 2 (RIPK2). The format is functional. The note with it: Homo sapiens.
Assay [8] can be described thus: Luminescence Cell-Based Dose Retest to Confirm Inhibitors of Cancer Stem Cells. [Related pubchem assays (depositor defined):AID2717, AID2721]. The format is functional. The note with it: Homo sapiens.
Assay [9] deals with T5, Short transient receptor potential channel 4 (Mus musculus, UniProt Q9QUQ5).
T5 sequence (Q9QUQ5 whole entry): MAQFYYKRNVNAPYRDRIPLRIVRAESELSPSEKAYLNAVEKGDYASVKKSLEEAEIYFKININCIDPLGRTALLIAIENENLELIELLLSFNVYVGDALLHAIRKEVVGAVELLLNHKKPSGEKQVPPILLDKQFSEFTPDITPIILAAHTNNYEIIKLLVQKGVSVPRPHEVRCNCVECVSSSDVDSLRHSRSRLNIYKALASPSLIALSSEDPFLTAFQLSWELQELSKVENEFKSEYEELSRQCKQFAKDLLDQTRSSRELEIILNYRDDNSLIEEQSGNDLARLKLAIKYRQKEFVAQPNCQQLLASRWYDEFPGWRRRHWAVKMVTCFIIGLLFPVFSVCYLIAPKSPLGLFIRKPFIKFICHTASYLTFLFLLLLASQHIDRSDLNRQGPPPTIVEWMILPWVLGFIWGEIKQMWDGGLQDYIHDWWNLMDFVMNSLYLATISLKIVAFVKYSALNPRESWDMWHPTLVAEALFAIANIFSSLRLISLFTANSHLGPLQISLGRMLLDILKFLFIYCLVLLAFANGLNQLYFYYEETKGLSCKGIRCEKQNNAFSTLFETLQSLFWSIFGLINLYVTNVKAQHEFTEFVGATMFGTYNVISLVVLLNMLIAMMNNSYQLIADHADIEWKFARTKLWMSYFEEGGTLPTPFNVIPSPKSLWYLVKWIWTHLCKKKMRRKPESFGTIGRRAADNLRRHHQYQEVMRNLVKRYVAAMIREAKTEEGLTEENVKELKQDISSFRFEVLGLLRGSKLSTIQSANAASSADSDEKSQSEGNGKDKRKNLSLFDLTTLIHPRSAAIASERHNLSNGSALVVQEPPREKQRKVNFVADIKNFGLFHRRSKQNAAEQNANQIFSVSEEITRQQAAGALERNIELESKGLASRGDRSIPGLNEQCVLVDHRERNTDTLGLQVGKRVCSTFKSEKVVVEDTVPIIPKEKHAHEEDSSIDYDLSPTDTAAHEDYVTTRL
In words: mouse TRPC4 channel inhibitors, dose response, cell-based, HEK293 TRPC4/mu-opioid, Fluo-4 calcium (AID 434942).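 Note: potency of inhibitors blocking the TRPC4 calcium response.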 The format is functional.

Assay [10] is described as follows: cells. It counts as functional, cell-based.
A short description of assay [11]: cells. It counts as functional, cell-based. This is another data set of the same source.
A further assay has as its system INS1. In words: beta cell apoptosis inhibitors, cytokine rescue, dose response, luminescence, retest (AID 449756).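 Note: cell death triggered by IL-1 beta plus TNF-alpha plus IFN-gamma mixture; protective hits raise ATP signal compared with cytokine alone wells.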 Particulars: Rattus norvegicus. The format is functional, cell-based.
The next assay has as its target T6, Hexokinase (Trypanosoma brucei, UniProt Q38C41).
T6 sequence (Q38C41 whole entry): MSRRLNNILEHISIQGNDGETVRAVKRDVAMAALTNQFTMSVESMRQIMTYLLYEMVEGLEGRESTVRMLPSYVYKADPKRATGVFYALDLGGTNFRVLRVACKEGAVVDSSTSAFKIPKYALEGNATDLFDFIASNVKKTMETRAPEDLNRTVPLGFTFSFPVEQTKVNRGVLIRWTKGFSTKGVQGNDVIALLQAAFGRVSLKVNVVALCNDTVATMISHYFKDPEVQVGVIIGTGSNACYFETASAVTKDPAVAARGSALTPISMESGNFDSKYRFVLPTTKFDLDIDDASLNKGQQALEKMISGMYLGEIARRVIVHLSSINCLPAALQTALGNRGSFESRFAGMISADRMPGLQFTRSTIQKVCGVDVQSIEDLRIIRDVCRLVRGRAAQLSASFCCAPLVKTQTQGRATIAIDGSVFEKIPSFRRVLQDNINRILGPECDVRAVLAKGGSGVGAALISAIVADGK
In words: Confirmation assay for inhibitors of Trypanosoma brucei hexokinase 1-Analogue-first series. [Related pubchem assays (depositor defined):AID1430, AID1632, AID2516, AID2560, AID2579, AID2600, AID449725, AID492951]. The format is functional.

The nature of assay [12]: HeLa cell cytotoxicity, dose response, cytotoxicity control for MgcRacGAP inhibitor project (AID 624300). The format is functional.
Assay [13] has as its target Glucose-6-phosphate 1-dehydrogenase (Homo sapiens, UniProt P11413). In words: human G6PD enzyme inhibitors, dose response, selectivity assay for P. falciparum G6PD inhibitor project, biochemical, fluorescence (AID 504792). The format is functional.
The target of assay [14] is T7, Rac GTPase-activating protein 1 (Homo sapiens, UniProt Q9H0H5).
T7 sequence (Q9H0H5 whole entry): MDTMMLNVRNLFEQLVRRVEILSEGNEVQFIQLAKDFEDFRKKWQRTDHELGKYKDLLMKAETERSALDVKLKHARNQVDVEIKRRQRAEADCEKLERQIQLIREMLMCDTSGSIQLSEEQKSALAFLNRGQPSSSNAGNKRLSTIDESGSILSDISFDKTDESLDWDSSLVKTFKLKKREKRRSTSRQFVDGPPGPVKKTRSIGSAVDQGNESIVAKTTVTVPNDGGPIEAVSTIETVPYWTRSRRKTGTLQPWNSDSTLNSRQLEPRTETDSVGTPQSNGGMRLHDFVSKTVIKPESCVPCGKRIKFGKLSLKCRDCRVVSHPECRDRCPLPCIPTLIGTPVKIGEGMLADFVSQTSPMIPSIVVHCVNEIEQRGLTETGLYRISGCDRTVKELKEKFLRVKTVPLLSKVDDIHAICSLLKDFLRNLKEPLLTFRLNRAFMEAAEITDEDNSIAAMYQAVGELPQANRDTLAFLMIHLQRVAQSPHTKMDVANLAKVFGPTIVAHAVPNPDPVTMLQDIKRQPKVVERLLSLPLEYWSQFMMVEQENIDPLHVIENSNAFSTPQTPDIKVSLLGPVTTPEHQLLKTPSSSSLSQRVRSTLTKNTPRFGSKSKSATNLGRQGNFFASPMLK
In words: MgcRacGAP GTPase-activating activity inhibitors, confirmation, biochemical, ADP Hunter fluorescence, primary and confirmatory (AID 624330). It counts as functional.

The source made the active and inactive calls.

Sequence of Glucose-6-phosphate 1-dehydrogenase (P11413 whole entry): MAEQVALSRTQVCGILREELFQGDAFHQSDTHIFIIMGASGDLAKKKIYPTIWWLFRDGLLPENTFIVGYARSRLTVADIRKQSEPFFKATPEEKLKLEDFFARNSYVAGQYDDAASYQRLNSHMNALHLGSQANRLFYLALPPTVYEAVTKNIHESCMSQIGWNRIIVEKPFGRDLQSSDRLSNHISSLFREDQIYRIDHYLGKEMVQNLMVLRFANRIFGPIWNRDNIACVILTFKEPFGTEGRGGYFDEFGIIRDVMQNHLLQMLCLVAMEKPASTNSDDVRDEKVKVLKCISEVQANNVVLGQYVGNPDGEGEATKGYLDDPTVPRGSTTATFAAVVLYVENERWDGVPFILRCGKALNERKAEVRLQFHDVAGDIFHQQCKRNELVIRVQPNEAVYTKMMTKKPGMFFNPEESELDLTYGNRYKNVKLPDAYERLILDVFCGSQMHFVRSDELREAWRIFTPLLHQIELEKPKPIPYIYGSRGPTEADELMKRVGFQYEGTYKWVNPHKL

For `CCN1CCN(c2cc(C)c3cc(NC(=S)N4CCCCC4)ccc3n2)CC1`, the IC50 (usually the concentration that gives 50% inhibition) was > 100 µM (inactive) at Protein skinhead-1 and 12.6 µM (active) in [2]. In addition, the EC50 – broadly, the concentration needed to bring the measured effect to its halfway point – is 2.28 µM (active) in assay [1] and > 60 µM (not active) in [4]. Moreover, the AC50 (commonly the concentration giving half of the maximal activity seen) in assay [3] is 100 µM (inactive); in assay [5], 14.1 µM (active).
In the case of `CN1CCN(c2ccc(S(=O)(=O)N3CCCCC3)cc2NC(=O)/C=C/c2ccc(Cl)c([N+](=O)[O-])c2)CC1`, the EC50 is 1.85 µM (active) in assay [1] and > 60 µM (not active) in assay [4]. Moreover, the CC50 in [6] was 23.3 µM (active). The AC50 on Paired box protein Pax-8 was 12.6 µM (active); in assay [8], 5.48 µM (active). Besides, the IC50 in assay [7] is 6.18 µM (active).
On to `c1ccc(CNc2c3ccccc3nc3ccccc23)cc1`, for which the EC50 in assay [1] is 0.931 µM (active); in assay [9] it was 1.33 µM (active); in the assay “cells [10]”, > 350 µM (not active); in the assay “cells [11]”, > 350 µM (not active); in assay [4], 8.87 µM (active). Besides, the AC50 in [3] is 5.21 µM (active); with INS1, 3.79 µM (active); in assay [5], 12.1 µM (active).
For the compound `O=c1c2ccccc2sn1-c1ccccc1F`, the IC50 is 2.26 µM (active) on Hexokinase, 17.8 µM (active) in [13] and 41 µM (active) in [14]. The CC50 in assay [12] was 72.2 µM (active).
Turning to `Cc1cc(-c2ccccc2)nc(N/N=C/c2ccc(N(C)C)cc2)n1`, the CC50 in assay [12] is 100 µM (active). Moreover, the IC50 in [14] was 74.7 µM (active).
